Measurements: PubChem BioAssay AID1648 (Sanford-Burnham Center for Chemical Genomics, 2009)
The source made the active and inactive calls. No rule for the calls is given here.

What follows are compounds tested against Serine/threonine-protein kinase mTOR (Homo sapiens) (UniProt P42345) (assay: mTOR FRB domain ligand binding – biophysical, NMR (AID 1648)). Conditions: NMR binding to FRB domain, chemical shift.
Chain of Serine/threonine-protein kinase mTOR (Homo sapiens) (P42345 2015-2114): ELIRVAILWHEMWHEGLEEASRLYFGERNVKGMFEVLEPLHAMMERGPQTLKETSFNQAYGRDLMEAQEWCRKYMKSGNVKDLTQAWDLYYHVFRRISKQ

Row | SMILES | Kd
1 | CC1(C)CC23C(=O)CCC(O)C2(C)CCC13 (configuration not stated) | > 4 mM (inactive)
2 | CC(=O)NC(=S)Nc1ccccc1C(N)=O | > 4 mM (inactive)
3 | O=C(c1cc(Cl)cc(Cl)c1)N1CCOCC1 | > 4 mM (inactive)
4 | COc1cccc2c(=O)n(CC(N)=O)ccc12 | > 4 mM (inactive)
5 | CC(=O)Nc1cccc(-c2nnc3n2CC(C)S3)c1 (configuration not stated) | > 4 mM (inactive)
6 | O=C(O)CCCCCCCC(=O)O | > 4 mM (inactive)
7 | COc1ccc(C(=O)/C=C/c2ccccc2)cc1 | > 4 mM (inactive)
8 | NC12CC3CC(C1)CC(CC(=O)O)(C3)C2 | > 4 mM (inactive)
9 | CC(=O)N1CN(C(C)=O)CN(C(C)=O)C1 | > 4 mM (inactive)
10 | O=C(O)c1cnn2ccccc12 | > 4 mM (inactive)
11 | CC(=O)c1ccc(N2C(=O)C(C(C)C)NC2=S)cc1 (configuration not stated) | > 4 mM (inactive)
12 | CC12CN([N+](=O)[O-])C3(C(N)=O)CC1CCC23C (configuration not stated) | > 4 mM (inactive)
13 | CC1CC[C@@]2(OC1)O[C@H]1CC3C4CC[C@@H]5C[C@@H](O)CC[C@]5(C)C4CC[C@]3(C)[C@H]1[C@@H]2C (some centres not stated) | > 4 mM (inactive)
14 | Cc1cc(C(=O)c2c(C)nn(C)c2Cl)n(C)n1 | > 4 mM (inactive)
15 | CCOC(=O)c1c(C)n([O-])c2ccccc2[n+]1=O | > 4 mM (inactive)
16 | Cc1ccc(C(O)c2nccn2C)o1 (configuration not stated) | > 4 mM (inactive)
17 | NC(CC(=O)O)C(=O)Nc1ccc(Cl)cc1 (configuration not stated) | > 4 mM (inactive)
18 | O=C(O)c1ccc(-c2cccs2)s1 | > 4 mM (inactive)
19 | O=C1NC(=S)N/C1=C\c1cccnc1 | > 4 mM (inactive)
20 | Cc1cc(C)cc(C(=O)N2CCC(C(N)=O)CC2)c1 | > 4 mM (inactive)
21 | CN1CCC(NC(=O)c2c(F)cccc2Cl)CC1 | > 4 mM (inactive)
22 | Nc1ccc(S(=O)(=O)N2CCCCC2)cc1 | > 4 mM (inactive)
23 | CN(C)c1ccc2c(=O)[nH][nH]c(=O)c2c1 | > 4 mM (inactive)

Row | SMILES | Kd
24 | Cc1ccc(-c2nc(N)n(C(=O)c3cccnc3)n2)cc1 | > 4 mM (inactive)
25 | CSc1ccccc1NC(=O)c1ccncc1 | > 4 mM (inactive)
26 | COc1ccc2[nH]cc(CCNC(C)=O)c2c1 | > 4 mM (inactive)
27 | CC(C)[C@@H]1CC[C@@H](C)C[C@H]1O | > 4 mM (inactive)
28 | c1ccc(-c2csc(Nc3cccnc3)n2)nc1 | > 4 mM (inactive)
29 | CC(=O)O[C@H]1CC[C@@]2(C)C(CC[C@]3(C)C2C(=O)C=C2C4[C@@H](C)[C@H](C)CC[C@]4(C(=O)O)CC[C@]23C)C1(C)C (some centres not stated) | > 4 mM (inactive)
30 | O=C(Nn1cnnc1)c1cccc(C(F)(F)F)c1 | > 4 mM (inactive)
31 | COc1cc(C2NC(=S)NC(C)=C2C(C)=O)ccc1O (configuration not stated) | > 4 mM (inactive)
32 | CNC(=O)c1ccccc1-c1ccccc1 | > 4 mM (inactive)
33 | COc1ccc(C(C)=O)c(OC)c1 | > 4 mM (inactive)
34 | CC(CC(=O)O)n1cccn1 (configuration not stated) | > 4 mM (inactive)
35 | N=C1/C(=C\c2ccco2)C(=O)N=C2SC=NN12 | > 4 mM (inactive)
36 | CC(=O)c1cc2c(s1)SCC(=O)N2 | > 4 mM (inactive)
37 | COc1ccc([C@@H](C)C(=O)c2ccc(O)cc2O)cc1 | > 4 mM (inactive)
38 | O=[n+]1cc(-c2ccccc2)n([O-])c2c1CCC2 | > 4 mM (inactive)
39 | CC(C)=CCc1c2c(c3occ(-c4ccc(O)c(O)c4)c(=O)c3c1O)C=CC(C)(C)O2 | > 4 mM (inactive)
40 | COc1cc2c(cc1-c1coc3c4c(c(OC)cc3c1=O)OC(C)(C)C=C4)OCO2 | > 4 mM (inactive)
41 | CC(C)=NNC(=O)C(=O)Nc1ccc(F)cc1 | > 4 mM (inactive)
42 | CC12CNCC(C)(CNC1)C2O (configuration not stated) | > 4 mM (inactive)
43 | C=C(C)[C@@H]1[C@H]2OC(=O)[C@@H]1[C@]1(O)C[C@H]3O[C@]34C(=O)O[C@H]2[C@]14C | > 4 mM (inactive)
44 | c1ccc(SCc2nc(-c3ccccn3)no2)cc1 | > 4 mM (inactive)
45 | CP(C)(=O)CCC(=O)O | > 4 mM (inactive)
46 | CCCn1cnn2c(=O)cc(C)nc12 | > 4 mM (inactive)

Row | SMILES | Kd
47 | CCOC(=O)CC1Sc2ccccc2NC1=S (configuration not stated) | > 4 mM (inactive)
48 | Cc1ccc(S(=O)(=O)/N=C2\NC(=O)CS2)cc1 | > 4 mM (inactive)
49 | O=c1ccnc(Nc2ccccc2O)[nH]1 | > 4 mM (inactive)
50 | Cc1cc(C(=O)N2CCCCCC2)cs1 | > 4 mM (inactive)
51 | COC(=O)CSc1nnc(-c2ccc(C(=O)O)cc2)o1 | > 4 mM (inactive)
52 | CCN1CCN(c2ncnc3c2nnn3C)CC1 | > 4 mM (inactive)
53 | Cc1cc(OC(=O)c2c(C)cc(O)cc2O)cc(O)c1C(=O)O | > 4 mM (inactive)
54 | C[C@H]1CCCC(=O)CCC/C=C/c2cc(O)cc(O)c2C(=O)O1 | > 4 mM (inactive)
55 | C[C@@H]1CC[C@@]2(OC1)OC1C(O)C3C4CC[C@H]5C[C@H](O[C@@H]6O[C@H](CO)[C@H](O[C@@H]7O[C@H](CO)[C@@H](O)[C@H](O[C@@H]8OC[C@@H](O)[C@H](O)[C@H]8O)[C@H]7O[C@@H]7O[C@H](CO)[C@H](O)[C@H](O[C@@H]8O[C@H](CO)[C@@H](O)[C@H](O)[C@H]8O)[C@H]7O)[C@H](O)[C@H]6O)[C@H](O)C[C@]5(C)C4CC[C@]3(C)C1[C@@H]2C (some centres not stated) | > 4 mM (inactive)
56 | COC(=O)c1nc(-c2ccccc2)oc1N(C)C | > 4 mM (inactive)
57 | O=C(Nc1nnc(-c2ccccc2Cl)o1)c1ccco1 | > 4 mM (inactive)
58 | COC(=O)/C(=C1\OC(=O)C(c2ccccc2)C1=O)c1ccccc1 (configuration not stated) | > 4 mM (inactive)
59 | Fc1ccc(CN2CCCNCC2)cc1 | > 4 mM (inactive)
60 | CCC(C)C(=O)O[C@H]1[C@H](O)C2C(CN3CC(C)CCC3[C@@]2(C)O)C2C[C@]34O[C@]5(O)C(OC(=O)C(C)(O)CC)CC[C@@]3(C)C5C(OC(C)=O)[C@@H](OC(C)=O)C4[C@@]21O (some centres not stated) | > 4 mM (inactive)
61 | CC(CC(O)C1OC1(C)C)[C@@H]1CCC2(C)C3=CCC4C(C)(C)C(=O)CCC4(C)C3CC[C@@]12C (some centres not stated) | > 4 mM (inactive)
62 | CC1(C)C(=O)CC[C@@]2(C)C1C[C@@H](O)[C@@]1(C)C3=CC(=O)O[C@@H](c4ccoc4)[C@]3(C)CCC21 (some centres not stated) | > 4 mM (inactive)
63 | COc1cc(N)ncn1 | > 4 mM (inactive)
64 | O=C1CN2C(=N1)N(Cc1ccccc1)c1ccccc12 | > 4 mM (inactive)
65 | COc1ccc2c(c1)OC/C(=C/c1ccc(O)c(O)c1)C2=O | > 4 mM (inactive)
66 | Nc1oncc1-c1ccccn1 | > 4 mM (inactive)
67 | CC(=O)OCc1cc(=O)n(C)c(=O)n1C | > 4 mM (inactive)
68 | Cc1ccc(SCCN2C(=O)NC(C)(C)C2=O)cc1 | > 4 mM (inactive)
69 | CCOC(=O)c1snnc1-c1ccccc1 | > 4 mM (inactive)

Row | SMILES | Kd
70 | CC(=O)NC(=S)Nc1ccc(C(C)=O)cc1 | > 4 mM (inactive)
71 | CC1(C(=O)O)CC2C=CC1C2 (configuration not stated) | > 4 mM (inactive)
72 | CS(=O)(=O)N1CCN(C(=O)c2ccccc2)C1 | > 4 mM (inactive)
73 | NC(=O)CC1Nc2cccc3cccc(c23)NC1=O (configuration not stated) | > 4 mM (inactive)
74 | Cc1cc(N2CCCC2=O)c(N)cc1N | > 4 mM (inactive)
75 | CC(C)n1nnc2cc(C(=O)O)ccc21 | > 4 mM (inactive)
76 | CNC(=O)c1c(O)c2ccccc2[nH]c1=O | > 4 mM (inactive)
77 | COc1ccc(NS(=O)(=O)c2ccc(N)cc2)nn1 | > 4 mM (inactive)
78 | NC(=O)c1cccc2c(=O)oc3ccccc3c12 | > 4 mM (inactive)
79 | O=C(Nc1nncs1)C1(c2ccccc2)CCCC1 | > 4 mM (inactive)
80 | O=c1n(-c2cccc(Cl)c2)c(=O)n2n1CCC2 | > 4 mM (inactive)
81 | COc1ccc(-c2cn[nH]c2N)c(OC)c1 | > 4 mM (inactive)
82 | Cc1nc(-c2cccc(-c3noc(C)n3)c2)no1 | > 4 mM (inactive)
83 | COc1cc(-c2csc(C)n2)ccc1O | > 4 mM (inactive)
84 | Cn1c(CSc2nc3ccccc3s2)n[nH]c1=S | > 4 mM (inactive)
85 | Cc1cc2c(nn1)CCc1nonc1-2 | > 4 mM (inactive)
86 | O=C(CC1Nc2ccccc2NC1=O)Nc1ccc(O)cc1 (configuration not stated) | > 4 mM (inactive)
87 | O=[n+]1c(CO)c(CO)n([O-])c2ccccc21 | > 4 mM (inactive)
88 | CC1=C(/C=C/C(C)=C/C=C/C(C)=C/C=C/C=C(C)/C=C/C=C(C)/C=C/C(=O)[C@]2(C)C[C@@H](O)CC2(C)C)C(C)(C)C[C@H](O)C1 | > 4 mM (inactive)
89 | O=C(/C=C/c1ccc(O)cc1)c1ccc(O)cc1O | > 4 mM (inactive)
90 | CC(=O)c1c(O)cc(C)n(Cc2ccccc2)c1=O | > 4 mM (inactive)
91 | O=c1n(-c2ccccc2)c(=O)n2n1CCCC2 | > 4 mM (inactive)
92 | COC(=O)c1scc(C)c1N | > 4 mM (inactive)

Row | SMILES | Kd
93 | Cc1nn(-c2ccccc2)nc1CO | > 4 mM (inactive)
94 | c1ccc(-c2nsc(N3CCNCC3)n2)cc1 | > 4 mM (inactive)
95 | CCNC(CC(=O)Nc1ccc(O)cc1)C(=O)O (configuration not stated) | > 4 mM (inactive)
96 | CS(=O)(=O)Nc1nnc(Cc2ccccc2)s1 | > 4 mM (inactive)
97 | Cc1ccc(C(=O)Nc2ccncc2)o1 | > 4 mM (inactive)
98 | O=C(c1ccc(Cl)c(F)c1F)N1CCCC1 | > 4 mM (inactive)
99 | Cc1noc(C)c1C(=O)Nc1sc(C)c(C)c1C#N | > 4 mM (inactive)
100 | COc1cc2c(cc1O)CCNC2C (configuration not stated) | > 4 mM (inactive)
101 | NC(C(=O)O)C(O)c1ccccc1 (configuration not stated) | > 4 mM (inactive)
102 | CN1CCN(c2ccc(CN)cc2)CC1 | > 4 mM (inactive)
103 | CS(=O)(=O)Nc1ccccc1C(=O)c1ccccc1 | > 4 mM (inactive)
104 | CCCCCC(=O)Cc1cc(O)cc(O)c1C(=O)Oc1cc(CC(=O)CCCCC)c(C(=O)O)c(OC)c1 | > 4 mM (inactive)
105 | CCOC(=O)CC1Sc2ccccc2NC1=O (configuration not stated) | > 4 mM (inactive)
106 | CN1CCN(CC(=O)N2CCc3ccccc32)CC1 | > 4 mM (inactive)
107 | CC1(C)N([O-])c2cc([N+](=O)[O-])ccc2[N+]1=O | > 4 mM (inactive)
108 | COc1ccc(C(O)c2nccn2C)cc1 (configuration not stated) | > 4 mM (inactive)
109 | OCc1cccc2nonc12 | > 4 mM (inactive)
110 | COC(=O)c1ccc2ncccc2c1 | > 4 mM (inactive)
111 | O=c1[nH]nc(Cc2ccncc2)c2ccccc12 | > 4 mM (inactive)
112 | CC(=O)Nc1cccc(Cn2cccn2)c1 | > 4 mM (inactive)
